The conditions of data set [1]: cited from earlier work.
Data set [2] has as its system hematopoietic stem cells (mononuclear cells co-cultured with mesenchymal cells). Nature of the data set: Mesenchymal-MNC co-culture at 21 days +/- Nicotinamide 5 mM: cell counts and surface markers. Type of data set: cell-based, human. From the text: Isolation of mesenchymal cells: Mononuclear cells containing mesenchymal cells from bone marrow were obtained from a […] prepared by negative immuno-depletion of CD3, CD14, CD19, CD38, CD66b, and glycophorin-A positive cells using a commercially available kit (RosetteSep®, StemCell Technologies, Vancouver, BC, Canada), as per manufacturer's instructions. […] Blood 90 Suppl. 1 347b, 1997 (abst)]. The immuno-depleted cells were harvested, and then either further separated by layering on a Ficoll-Paque (Amersham-Pharmacia, Piscataway, N.J., USA) density gradient column (1.077 g/cm^3) and centrifuged at 400×g for 30 minutes, or cultured without further separation. The collected cells were plated in T75 non-coated tissue culture flasks (Nunc) at a concentration of 2×10^5 cells/ml, in expansion medium containing: low glucose DMEM and 20% Fetal Bovine Serum (FBS, Hyclone, Logan, Utah, USA) supplemented with or without 10 ng/ml bFGF (Pepro Tech Inc, Rocky Hill N.J.), 0.05 mg/ml gentamicin (Sigma Inc., St. Louis, Mo.) and 2 mM L-glutamine (Biological Industries, Israel). Selected cells were allowed to adhere for 3-4 days and non-adherent cells were washed out with medium changes. Some experiments were initiated as well with the entire MNC fraction.
Maintenance and expansion of mesenchymal cells: When adherent mesenchymal cells reached approximately 80-90% confluence, they were detached with 0.25% trypsin-EDTA (Sigma, Inc. St Louis, Mo.), washed twice in DMEM and 20% Fetal Bovine Serum, with centrifugation, 400 g, 5 min., and re-plated at a 1:2 to 1:1000 dilution under the same culture conditions.
(§1) Mesenchymal hematopoietic co-cultures: Mesenchymal cultures were established as described above. After reaching confluence, the mesenchymal medium was discarded and replaced with fresh, hematopoietic supportive medium containing early acting or early and late acting cytokines, and hematopoietic cells selected from; cord blood, bone marrow, placenta or peripheral blood mononuclear cells or purified progenitor cells (CD34+ or CD133+ cells), with or without a modulator of cell fate. Mononuclear or purified stem and/or progenitor cells were isolated and prepared for ex-vivo culture as previously described (see, above, or, for example, PCT IL05/000753). At different intervals the non-adherent cells were harvested, analyzed for hematopoietic potential by functional analysis (clonogenic assay, CFU, etc), and re-cultured in a stroma-free medium. The stromal layer was then re-supplemented with fresh hematopoietic supportive medium (medium including 10% FCS, SCF, TPO, FLT3, and IL6). This process was repeated several times during two to six weeks co-culture duration (as on day 10, day 14, etc).
Immunophenotyping: At different time points the cells were detached with 1 mM EDTA (15′, 37° C.). The detached cells were washed with a PBS solution containing 1% BSA, and stained (at 4° C. for 30 min) with either fluorescein isothiocyanate (FITC) or phycoerythrin (PE)-conjugated antibodies: mesenchymal markers 105 PE, 105 FITC (Serotec), 73 PE, and 49b PE, and other, non-mesenchymal markers such as 45 FITC, 14 FITC, HLA-DR FITC (BD Biosciences Pharmngen), 34 PE (Dako, Carpenteria, Calif., USA), HLA class1 PE, (BD Biosciences Pharmingen, San Diego Calif.). The cells were then washed in the above buffer and analyzed using a FACScalibur® flow cytometer (Becton Dickinson and Co, San Jose, Calif., USA). Cells were passed at a rate of about 1000 cells/second, using saline as the sheath fluid. A 488 nm argon laser beam served as the light source for excitation. Emission of ten thousand cells was measured using logarithmic amplification and calculated using the cellQuest software.

Data set [3] has the same test system. The data set is described as follows: Assay for Colony Forming Units (CFU) on 21-day mesenchymal-MNC co-culture. Type of data set: cell-based, human. To be noted: Table 3 experiment; 21 days; Nicotinamide 5 mM.
Text: as §1
Assay for Colony Forming Units (CFU)—Cells were cloned in semi-solid, methylcellulose-containing medium supplemented with 2 IU/mL erythropoietin (Eprex, Cilag AG Int., Switzerland), stem cell factor and IL-3, both at 20 ng/mL, G-CSF and GM-CSF, both at 10 ng/mL (all from Pepro Tech, Rocky Hill, N.J.). […]

Data set [4] deals with hematopoietic stem cells (from bone marrow) co-cultured with mesenchymal cells. Nature of the data set: Long-term Mesenchymal-MNC co-culture (21 days +/- Nicotinamide, then 5 weeks cytokines only), assessed at 8 weeks. It is filed as cell-based, human. The procedure: Assay for Colony Forming Units (CFU)—Cells were cloned in semi-solid, methylcellulose-containing medium supplemented with 2 IU/mL erythropoietin (Eprex, Cilag AG Int., Switzerland), stem cell factor and IL-3, both at 20 ng/mL, G-CSF and GM-CSF, both at 10 ng/mL (all from Pepro Tech, Rocky Hill, N.J.). Cultures were incubated for 14 days at 37° C. in humidified atmosphere of 5% CO2 in air.
In order to determine the long-term effects of modulators of cell fate on the long-term engraftment potential of hematopoietic stem cells, CFUc, CD34+ and CD34+/CD38− cells were assessed in co-cultured cells at 8 weeks (5 weeks after removal of nicotinamide from the medium).
The mononuclear cell fraction, prepared as described above, was expanded in co-culture with mesenchymal cells in medium supplemented with cytokines and 5 mM nicotinamide, as described hereinabove, for 21 days. After 21 days, the medium was replaced with medium supplemented with cytokines only, and expansion in co-cultures continued for another 5 weeks. At 8 weeks, the expanded cells were assessed for hematopoietic stem cell markers (CD34+ and CD34+/CD38−), and for engraftment potential (CFUc), as described hereinabove.

Data set [5] has as its system CD34+/CXCR4+ cells in hematopoietic stem cells co-cultured with mesenchymal cells. Nature of the data set: CXCR4 in Mesenchymal-MNC co-culture at 21 days (CD34/CXCR4 double staining). It is filed as cell-based, human. Particulars: for Number of CD34+CXCR4+ cells: 21 days, co-culture + cytokines + Nicotinamide 5 mM; for % Increase of CD34+CXCR4+ cells: vs co-culture + cytokines without nicotinamide. The source says:
Induction of CXCR4 expression in hematopoietic stem cells results in increased sensitivity to lower levels of SDF-1, increased migration of the cells to SDF-1, improved proliferation and survival of the hematopoietic stem cells in-vitro and in-vivo, and improved engraftment potential of the induced cells. Similarly, it has been shown that blockage of CXCR4 with specific antibodies prevents engraftment of hematopoietic stem cells (Brenner, et al Stem Cells 2004; 22:1128-33; Kahn et al, Blood, 2004; 103:2942-49; Peled et al, Science 1999; 283:845-48). In order to investigate the effect of modulators of cell fate on CXCR4 expression in hematopoietic stem cells in co-culture with mesenchymal cells, the population of CD34+/CXCR4+ cell in co-cultured cells was detected and quantified by double staining with PE labeled CD34 and FITC labeled CXCR4. […] This enhanced CXCR4 expression contributes to the enhanced engraftment potential of the expanded, undifferentiated hematopoietic stem cells.

Setting [6] is: Table 1 experiment, 21 days, Nicotinamide 5 mM.
[7] abbreviates: Table 2 experiment, 21 days, Nicotinamide 5 mM.
[8] abbreviates: Table 3 experiment, 21 days, Nicotinamide 5 mM.
The mark [9] stands for this setting: Table 4 experiment, 21 days, Nicotinamide 5 mM.
The mark [10] stands for this setting: 21 days Nicotinamide 5 mM then 5 weeks cytokines only.

Some results are limits rather than exact numbers.

Take `O=c1cc(N2CCOCC2)oc2c(-c3ccccc3)cccc12` [LY294002]: in data set [1], the “stability in tissue culture medium” value is given as “very stable”.
In the case of `NC(=O)c1cccnc1` [Nicotinamide, nicotinamide], in data set [2] (setting [6]), the “CD34+CD38− (×10^4)” value is given as 304 ×10^4, the “CD34+Lin− (×10^4)” value was 25 ×10^4 and the “TNC × 10^6” value was 309 × 10^6. Moreover, in data set [2] (setting [7]), the “CD34+CD38− (×10^4)” value was 1238 ×10^4, the “CD34+Lin− (×10^4)” value is recorded as 689 ×10^4 and the “TNC × 10^6” value is listed as 309 × 10^6. Besides, in data set [2] (setting [8]), the “CD34+ (×10^4)” value was 1553 ×10^4, the “CD34+/TNC” value is recorded as 5.3%, the “CD34+CD38− (×10^4)” value is 82 ×10^4 and the “TNC × 10^6” value is reported as 292 × 10^6. The “CD34+/TNC” value in data set [2] (Table 3 experiment, 21 days, Nicotinamide 5 mM, listed as nicotinamide) came to 5.3%. For the same compound, in data set [2] (setting [9]), the “CD34+ (×10^4)” value is reported as 216 ×10^4, the “CD34+/TNC” value was found to be 1.5%, the “CD34+CD38− (×10^4)” value is on record as 63 ×10^4 and the “CD34+Lin− (×10^4)” value is 1.54 ×10^4. In data set [2] (setting [9]), the “TNC × 10^6” value is reported as 144 × 10^6. In addition, the “CD34+/TNC” value in data set [2] (Table 4 experiment, 21 days, Nicotinamide 5 mM, listed as nicotinamide) was found to be 1.5%. Further, the “greater expansion of stem cells (CD34+) relative to total nucleated cells, compared with cocultures without nicotinamide” value in data set [2] (Tables 3 and 4, 21 days, Nicotinamide 5 mM) was not above 2.3 times. Further, the “increase of the proportion of CD34+/38− cells and CD34+/Lin− cells in the cultures” value in data set [2] (with nicotinamide, in some cases, Tables 1-5) is more than 10 fold. Further, the “CFU (×10^3)” value in data set [3] is reported as 4331 ×10^3. Also, in data set [4] (setting [10]), the “CD34+ cells (cumulative)” value was 264 × 10^6, the “CD34+/CD38− (%)” value came out at 6.3% and the “CFUc (cumulative)” value is given as 28 × 10^6. Moreover, in data set [4] (vs co-culture + cytokines), the “Fold Increase (%) of CD34+ cells (cumulative)” value turned out to be 235%, the “Fold Increase (%) of CD34+/CD38− (%)” value came out at 1050% and the “Fold Increase (%) of CFUc (cumulative)” value worked out at 215%. In addition, in data set [5] (Exp 1), the “Number of CD34+CXCR4+ cells” value was 65 × 10^4 and the “% Increase of CD34+CXCR4+ cells” value stood at 80%. Moreover, in data set [5] (Exp 2), the “Number of CD34+CXCR4+ cells” value is on record as 200 × 10^4 and the “% Increase of CD34+CXCR4+ cells” value came out at 33%.

These data come from patent US8080417B2, “Methods of ex vivo hematopoietic stem cell expansion by co-culture with mesenchymal cells” (priority 2004, dated 2011).
